The text below walks through data of patent publication US9861613B2, “GPR142 agonist compounds” (Eli Lilly and Company, priority 2014, dated 2018).

One test concerns the target T1, human GPR142 (Homo sapiens, UniProt Q7Z601).
T1 construct: expressed in transfected cells; host or cells: HEK293 (G418-selected)
T1 sequence (Q7Z601 1-462): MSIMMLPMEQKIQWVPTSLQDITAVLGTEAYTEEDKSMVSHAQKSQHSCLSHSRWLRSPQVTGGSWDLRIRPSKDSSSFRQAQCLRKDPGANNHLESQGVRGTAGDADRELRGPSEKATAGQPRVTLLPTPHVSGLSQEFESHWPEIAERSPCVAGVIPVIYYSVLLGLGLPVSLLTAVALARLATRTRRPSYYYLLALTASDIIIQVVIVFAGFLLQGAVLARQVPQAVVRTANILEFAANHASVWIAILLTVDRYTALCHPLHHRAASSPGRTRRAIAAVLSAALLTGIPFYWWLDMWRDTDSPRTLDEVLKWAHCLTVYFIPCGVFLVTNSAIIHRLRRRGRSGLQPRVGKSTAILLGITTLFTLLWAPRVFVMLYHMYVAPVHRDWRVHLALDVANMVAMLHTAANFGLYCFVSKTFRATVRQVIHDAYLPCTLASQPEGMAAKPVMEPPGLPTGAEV
Description: GPR142 agonist effect as measured by IP-1 assay (HTRF), human GPR142. Type of test: cell-based. The following applies: HEK293 cells expressing human GPR142, IP-1, Mean±SEM, n=9. The protocol:
(§1) The purpose of this assay is to detect GPR142 agonist effect.
(§2) HEK293 cells expressing human GPR142 or mouse GPR142 are maintained in Dulbecco's modified Eagle's medium supplemented with 10% FBS and 800 μg/ml G418 (Geneticin®) at 37° C. and 5% CO2. The cells are plated in 384 well plates at 5000 cells per well and allowed 18 hours for attachment. After addition of compounds at varying concentrations ranging from 30 μM to 1 nM, cells are incubated for 1 hour. IP-1 measurements are performed using an IP-One HTRF® assay kit (Cisbio) according to manufacturer's protocol using assay buffer containing 1×HBSS (+Ca, +Mg), 0.1% BSA, 50 mM LiCl and 20 mM HEPES, pH 7.2. The reaction is stopped by addition of IP1-d2 (IP-1 coupled to an organic HTRF acceptor) followed by cryptate solution (http://www.htrf.com/usa/htrf-chemistry) and the plates are incubated at 25° C. for 1 hour. Fluorescence is read in an Envision instrument at 665 nm and 620 nm wavelength. The ratio of 665 nm/620 nm is calculated and converted to IP-1 levels using an IP-1 standard curve. The data is fit to a 4 parameter-fit logistics to determine EC50 values.
A general note: Time-resolved FRET reads energy transfer from a long-lived donor to a nearby acceptor.

For the next test, the target named is T2, mouse GPR142 (Mus musculus, UniProt Q7TQN9).
T2 construct: expressed in transfected cells; host or cells: HEK293 (G418-selected)
T2 sequence (Q7TQN9 1-365): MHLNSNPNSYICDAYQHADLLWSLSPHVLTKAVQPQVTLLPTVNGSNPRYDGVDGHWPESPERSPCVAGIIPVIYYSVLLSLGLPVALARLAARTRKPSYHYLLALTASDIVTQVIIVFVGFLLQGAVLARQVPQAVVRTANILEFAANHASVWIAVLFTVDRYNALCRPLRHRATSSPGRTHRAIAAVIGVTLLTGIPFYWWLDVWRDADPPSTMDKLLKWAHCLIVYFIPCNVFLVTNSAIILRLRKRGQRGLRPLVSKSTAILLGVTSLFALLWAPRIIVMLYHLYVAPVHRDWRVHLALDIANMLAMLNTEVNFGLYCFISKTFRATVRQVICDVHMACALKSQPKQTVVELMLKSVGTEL
The test is described as follows: GPR142 agonist effect as measured by IP-1 assay (HTRF), mouse GPR142. Type of test: cell-based. The following applies: HEK293 cells expressing mouse GPR142, IP-1; Mean±SEM, n=5; read-out: EC50 against mouse GPR142 receptor. The protocol:
as §1, §2

A further test deals with T3, GPR142 (Mus musculus, UniProt Q7TQN9).
T3 construct: from tissue; host or cells: whole animal, male C57BL/6 mice
T3 sequence (Q7TQN9 1-365): T2 sequence (Q7TQN9 1-365)
The test is described as follows: Intraperitoneal glucose tolerance test (IPGTT). Type of test: in vivo. The following applies: lean C57BL/6 mice, oral dosing 30 min before glucose challenge. On the procedure: IPGTT assay is used to examine the ability of exemplified compounds to activate GPR142 in vivo resulting in anti-diabetic efficacy, i.e. reduction in plasma glucose levels. Male C57BL/6 mice (8-10 weeks of age) are fed normal rodent chow diet and water ad libitum. On the night before the study, animals are fasted overnight in clean cages. On the morning of the study, animals are dosed orally with vehicle or compound at the indicated doses 30 minutes prior to the glucose challenge (2 g/kg) by intraperitoneal injection. Blood glucose levels are determined from tail bleeds taken immediately prior to compound dosing (−30 min) and 0, 15, 30, and 60 min after glucose challenge using handheld glucometers. Plasma is isolated from tail bleeds taken at 7 minutes after glucose challenge and used to determine insulin levels by the Rat/Mouse Insulin Elisa kit (Millipore) or MA6000 Mouse/Rat Insulin Kit (MSD). The blood glucose profile from t=0 to t=60 min is used to calculate an area under the curve (AUC) for each treatment. Percent lowering in glucose AUC is calculated for each treatment group with respect to the AUC of vehicle group. Compounds with a reduction in glucose AUC (P<0.05) is considered positive in the assay.

The term EC50 denotes the concentration that produces a half-maximal response. Consider `Cc1ncn(C)c1NC(=O)[C@@H]1CCC[C@H](N(C)C(=O)c2cccc(C(F)(F)F)c2)C1` (single isomer, unassigned; isomer 1) [Example 1, Cis-(chiral)-N-[3-[(3,5-Dimethylimidazol-4-yl)carbamoyl]cyclohexyl]-N-methyl-3-(trifluoromethyl)benzamide, isomer 1], for which the “efficacy against human GPR142 receptor” value on human GPR142 is 105%. Moreover, the figures for the EC50 at human GPR142 (read-out: EC50 against human GPR142 receptor) and at mouse GPR142 were 52.6 nM and 5.46 nM, respectively. Besides, the “ED50 in IPGTT” value on GPR142 came to 4.2 mpk.
